Assay results from article PMC6941124 (International Journal of Molecular Sciences, 2019).
Residue numbers refer to the chain shown, from its start.

Assays:
CK1δ A36V = target: T1, CK1δ A36V (Homo sapiens, UniProt P48730, A36V); test: in vitro kinase assay, CK1δ mutant A36V; assay type: biochemical; details: inhibitor at IC50 concentration previously determined for CK1δ WT; DMSO control = 100%; adjusted to WT = 50%; mean ± SD
T1 sequence (P48730 1-415 A36V): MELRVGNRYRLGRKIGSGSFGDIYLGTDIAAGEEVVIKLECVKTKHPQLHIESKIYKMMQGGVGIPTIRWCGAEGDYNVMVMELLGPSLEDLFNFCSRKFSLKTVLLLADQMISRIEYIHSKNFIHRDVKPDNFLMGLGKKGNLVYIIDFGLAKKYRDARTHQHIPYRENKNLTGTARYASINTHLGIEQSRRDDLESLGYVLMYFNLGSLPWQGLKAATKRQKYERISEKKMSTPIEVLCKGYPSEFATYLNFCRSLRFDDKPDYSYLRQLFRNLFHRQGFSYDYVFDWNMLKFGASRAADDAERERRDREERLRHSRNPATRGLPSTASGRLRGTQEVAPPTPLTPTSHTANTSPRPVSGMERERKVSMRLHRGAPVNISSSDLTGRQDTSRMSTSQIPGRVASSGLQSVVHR
Experimental: (§1) Overexpression and purification of GST-CK1δ fusion proteins, either wild type or mutant, were performed as described previously.
(§2) Each kinase assay reaction was performed in kinase buffer (25 mM Tris-HCl (pH 7.5), 10 μM ATP, 10 mM MgCl2, 100 μM EDTA) in presence of purified GST-CK1δ kinase as source of enzyme (either wild type or mutant), an assay-specific substrate (α-casein, GST-p53^1−64, or GST-β-catenin^1−181), and radiolabeled ATP (2 μCi [γ-^32P]-ATP). For performing Michaelis–Menten analysis increasing substrate concentrations were used (α-casein: 0.39−25 μM; GST-p53^1−64: 0.09−1.87 μM; GST-β-catenin^1−181: 0.07−1.32 μM). For biological evaluation of small molecule inhibitors (SMIs), each inhibitor compound was either tested at 10 μM concentration for initial screening or by using a dilution series (0.005−10 µM) for determination of IC50 values. DMSO was used as control. Reactions were incubated for 30 min at 30 °C and reactions were stopped using 5x SDS-loading buffer (250 mM Tris-HCl [pH 6.8], 25% (v/v) β-mercaptoethanol (MSH), 50% (v/v) glycerol, 10% (w/v) SDS, 0.5% (w/v) bromphenol blue). Subsequently, samples were separated by SDS-PAGE using 12.5% acrylamide gels, stained with Coomassie, and phosphorylated substrates were visualized on X-ray film. Incorporation of radiolabeled phosphate was quantified by scintillation counting of Coomassie-stained substrate bands. Defined dilutions of the reaction master mix were counted as well in order to convert results obtained as counts per minute (CPM) to units of transferred phosphate in pmol/min. Michaelis–Menten analysis was performed using GraphPad Prism 6 (GraphPad Software, San Diego, CA, USA).

CK1δ R168H = target: T2, CK1δ R168H (Homo sapiens, UniProt P48730, R168H); test: in vitro kinase assay, CK1δ mutant R168H; assay type: biochemical; details: inhibitor at IC50 concentration previously determined for CK1δ WT; DMSO control = 100%; adjusted to WT = 50%; mean ± SD
T2 sequence (P48730 1-415 R168H): T1 sequence (P48730 1-415 A36V) with V36A, R168H
Experimental: as §1, §2

## O=C(Nc1nc2ccc(C(F)(F)F)cc2[nH]1)c1csc(NC(=O)c2ccccc2OC(F)(F)F)n1 [Bischof-5]
CK1δ A36V
  Residual activity of CK1δ A36V: 43 ± 15%
CK1δ R168H
  Residual activity of CK1δ R168H: 30 ± 16%

## Cc1ccc2nc(NC(=O)CSc3nc4c(c(=O)n3-c3ccccc3)SCC4)sc2c1 [IWP-2]
CK1δ A36V
  Residual activity of CK1δ A36V: 55 ± 6%
CK1δ R168H
  Residual activity of CK1δ R168H: 50 ± 9%

## COc1ccccc1-n1c(SCC(=O)Nc2nc3ccc(C)cc3s2)nc2c(c1=O)SCC2 [IWP-4]
CK1δ A36V
  Residual activity of CK1δ A36V: 49 ± 7%
CK1δ R168H
  Residual activity of CK1δ R168H: 61 ± 19%
